Test results taken from US7291625B2, “Use of a vitamin combination for the treatment of pruritus and non-infective disorders involving itching and/or inflammation” (priority 1999, dated 2007).
Where two headings read alike, the source gives them in different places.

Experiments:
[1] = tested on: uremic pruritus and sine materia pruritus forms; assay: Clinical experimentation: systemic niacin or niacinamide alone at pellagra dosage in pruritus forms; conditions: for effectiveness in combating the pruritus forms: systemic administration alone at pellagra dosage, uremic and sine materia pruritus
[2] = systemic, 2 to 6 g per day, therapy of hyperlipidemia; cited from earlier work
[3] = tested on: uremic pruritus and sine materia pruritus forms; conditions: human, in vivo
senile pruritus = assay: Clinical case reports: senile pruritus; format: in vivo, human
Source text: (§1) It is advisable to take the medicament by the oral route, after the main meals, with abundant water (at least half a glass). In the event that the treatment is discontinued and the symptoms revert, it is necessary to start again from the 1st phase.
3rd case— subject with senile pruritus—The patient had been complaining for about 3 years of a diffused itching, which had become increasingly intense. At first, they consulted their physician, who addressed them to a dermatologist.
The patient was then treated by oral administration of 50 mg of nicotinamide+2.5 mg of riboflavin twice daily. […] Thereafter, the therapy was reduced to half the dosage, for 15 days a month.
4th case— subject with senile pruritus—The patient had been suffering for about 2 years and a half from a diffused continuous itching at the torso and on the upper and lower limbs.
The treatment was continued with half the dose for further 15 days and then it was finally discontinued.
The treatment with half the dose was continued for 15 days, and then it was discontinued.
3rd case— subject with senile pruritus—The patient had been suffering for about one year from a diffused itching. […] Thereafter, the diagnosis of senile itching was made.

uremic pruritus = assay: Clinical case reports: uremic pruritus (renal dialysis, chronic renal failure or insufficiency); format: in vivo, human
Procedure: In the treatment of uremic subjects who currently undergo dialysis the protocol is the same as for the 1st phase above, but the continuation of the treatment with half the dose will take place starting after each dialysis treatment (also in this case, after the meal and with abundant water).
Thereafter, the patient was treated with 50 mg of nicotinamide+2.5 mg of riboflavin twice daily, by oral administration. […] The patient continued the same therapy for about 15 days, and thereafter the dosage was reduced to one-half, the administration occurring after the dialysis treatment. […]
Lastly, they underwent an additional 3 hours dialysis treatment each week, with carbon filter, for four weeks on end.
The treatment was started with 50 mg of nicotinamide twice daily, to be taken orally after the main meals. […] The patient continued to take 50 mg of nicotinamide after dinner for 15 more days, and then they took 50 mg of the same agent only on the day of the dialytic treatment. […]

anal and vulvar pruritus = assay: Clinical case reports: anal and vulvar pruritus; format: in vivo, human
Source text: as §1
As a first attempt, a gastroenterologist had been consulted for the anal itching, and thereafter a gynaecologist had been consulted for the vulvar itching.
The treatment was continued for 12 more days, and then it was reduced to half the dosage, for 15 days a month.
Then, the patient was given a therapy with 50 mg of nicotinamide twice daily, by oral administration, after the main meals. […] The patient continued to take 50 mg of nicotinamide daily, after dinner, for 15 days, and then they discontinued the treatment.
The treatment was then continued for 15 more days, with half the dosage, and then finally discontinued.

For `O=C(O)c1cccnc1` [niacin, 3-pyridinecarboxylic acid], the “effectiveness in combating the pruritus forms” value [1] is given as “not appreciably effective”, the “adverse side effects at large doses” value [2] is given as “adverse side effects, including gastrointestinal disturbances (such as abdominal pain and nausea) hepatotoxicity, and, above all, flushing” and the “side effects of flushing and itching” value [3] is given as “does not lead to the undesired side effects of flushing and itching”.
For `NC(=O)c1cccnc1` [nicotinamide], the “pruritus after 40 days” value (senile pruritus; series 2 case 4: senile pruritus, 50 mg nicotinamide alone twice daily oral) was “pruritus was quite mild”, the “itching about 10 days after discontinuation” value (senile pruritus; series 2 case 4, nicotinamide alone) was “itching had started again to increase” and the “itching after 45 days” value (senile pruritus; series 3 case 3: senile pruritus, 50 mg nicotinamide alone twice daily oral) was “itching had only slightly decreased”. For the same molecule, the “itching at subsequent monthly checks” value (senile pruritus; series 3 case 3, nicotinamide therapy continued) was “diffused moderate itching”, the “effectiveness in combating the pruritus forms” value [1] was “not appreciably effective” and the “side effects of flushing and itching” value ([1]; systemic administration alone at the dosage used for prevention and therapy of pellagra) was “does not lead to the undesired side effects of flushing and itching”. For the same molecule, the “adverse side effects at large doses” value [2] was “adverse side effects, including gastrointestinal disturbances (such as abdominal pain and nausea) hepatotoxicity, and, above all, flushing”, the “pruritus after one month and a half” value (uremic pruritus; series 2 case 1: person on renal dialysis, 50 mg nicotinamide alone twice daily oral) was “pruritus had sensibly decreased” and the “itching at check-up after one month” value (uremic pruritus; series 2 case 1, nicotinamide alone, reduced to 50 mg on dialysis days) was “still complained of some moderate itching”. The “symptom after 45 days” value (uremic pruritus; series 2 case 2: person on renal dialysis, 50 mg nicotinamide alone twice daily oral) was “appreciable reduction of the symptom”, the “itching 15 days after discontinuation” value (uremic pruritus; series 2 case 2, nicotinamide alone) was “itching had started again to gradually increase” and the “itching after 35 days” value (uremic pruritus; series 2 case 5: chronic renal insufficiency, 50 mg nicotinamide alone twice daily oral) was “some moderate itching”. For the same molecule, the “itching about 10 days after discontinuation” value (uremic pruritus; series 2 case 5, nicotinamide alone) was “itching had started to increase again”, the “itching after 65 days” value (uremic pruritus; series 3 case 1: person on renal dialysis three times weekly, 50 mg nicotinamide alone twice daily oral) was “itching had only become milder without disappearing” and the “pruritus at check-ups every 2 months” value (uremic pruritus; series 3 case 1, 50 mg nicotinamide after each dialysis treatment) was “persistent pruritus of a reduced intensity”. For the same molecule, the “itching after 50 days” value (uremic pruritus; series 3 case 2: renal insufficiency, 50 mg nicotinamide alone twice daily oral) was “itching had become milder, without totally disappearing”, the “itching at subsequent periodical checks” value (uremic pruritus; series 3 case 2, continued 50 mg/day nicotinamide) was “moderate itching diffused on the whole body” and the “itching after 60 days” value (anal and vulvar pruritus; series 2 case 3: anal vulvar pruritus, 50 mg nicotinamide alone twice daily oral) was “itching was moderate”. The “itching 15 days after discontinuation” value (anal and vulvar pruritus; series 2 case 3, nicotinamide alone) was “itching started to increase again”, the “symptoms after 2 months” value (anal and vulvar pruritus; series 3 case 4: anal and vulvar pruritus, 50 mg nicotinamide alone twice daily oral) was “a decrease of the symptoms was detected” and the “itching at subsequent monthly checks” value (anal and vulvar pruritus; series 3 case 4, still taking 50 mg/day nicotinamide) was “still complained of a moderate itching”.
